From ChEMBL document CHEMBL5113463, “Discovery and preclinical evaluations of JBD0131, a novel nitrodihydro-imidazooxazole anti-tuberculosis agent” (Bioorg Med Chem Lett, 2022)
≈ marks a conversion by molar mass, not a printed value.

tested on: Mycobacterium tuberculosis; experiment: Antimycobacterial activity against clinical isolate multidrug resistant Mycobacterium tuberculosis H37Rv assessed as bacterial growth inhibition; assay type: functional

First: C[C@]1(COc2ccc(N3CCC(Oc4ccc(OC(F)(F)F)cc4)CC3)cc2)Cn2cc([N+](=O)[O-])nc2O1
Second: C[C@]1(CN2Cc3nc(-c4ccc(F)cc4)sc3C2)CN=C(N)O1
The MIC50 of the first is 5.5-fold lower: 0.002 µg/mL (≈ 0.00374 µM) for the first, 0.011 µg/mL (≈ 0.0331 µM) for the second.

Going from `NNC(=O)c1ccncc1` [ISONIAZID] to `CO[C@H]1/C=C/O[C@@]2(C)Oc3c(C)c(O)c4c(O)c(c(/C=N/N5CCN(C)CC5)c(O)c4c3C2=O)NC(=O)/C(C)=C\C=C\[C@H](C)[C@H](O)[C@@H](C)[C@@H](O)[C@@H](C)[C@H](OC(C)=O)[C@@H]1C` [RIFAMPIN], the MIC50 rises from 4.37 µg/mL (≈ 31.9 µM) to greater than 40 µg/mL.

For `NC[C@H]1O[C@H](O[C@H]2[C@H](O)[C@@H](O[C@H]3O[C@H](CO)[C@@H](O)[C@H](N)[C@H]3O)[C@H](N)C[C@@H]2N)[C@H](O)[C@@H](O)[C@@H]1O` [KANAMYCIN], the MIC50 was 1.24 µg/mL (≈ 2.55 µM).

Compared with `C[C@]1(COc2ccc(N3CCC(Oc4ccc(OC(F)(F)F)cc4)CC3)cc2)Cn2cc([N+](=O)[O-])nc2O1`, `C[C@]1(CN2Cc3nc(-c4ccc(F)cc4)sc3C2)CN=C(N)O1` is 12-fold higher in MIC90: 0.003 µg/mL (≈ 0.00561 µM) for the first, 0.035 µg/mL (≈ 0.105 µM) for the second.

`NNC(=O)c1ccncc1` [ISONIAZID] and `CO[C@H]1/C=C/O[C@@]2(C)Oc3c(C)c(O)c4c(O)c(c(/C=N/N5CCN(C)CC5)c(O)c4c3C2=O)NC(=O)/C(C)=C\C=C\[C@H](C)[C@H](O)[C@@H](C)[C@@H](O)[C@@H](C)[C@H](OC(C)=O)[C@@H]1C` [RIFAMPIN] cannot be ordered by MIC90: greater than 40 µg/mL for the first, greater than 40 µg/mL for the second.

Molecule `NC[C@H]1O[C@H](O[C@H]2[C@H](O)[C@@H](O[C@H]3O[C@H](CO)[C@@H](O)[C@H](N)[C@H]3O)[C@H](N)C[C@@H]2N)[C@H](O)[C@@H](O)[C@@H]1O` [KANAMYCIN] has an MIC90 greater than 40 µg/mL.
